{"source": "patent US20100035867A1", "about": "(priority 2006, published 2010)", "key": {"[1]": {"biological_target": "anthrax edema toxin (protective antigen and edema factor) (Bacillus anthracis, UniProt P40136)", "sequence (P40136 whole entry, looked up)": "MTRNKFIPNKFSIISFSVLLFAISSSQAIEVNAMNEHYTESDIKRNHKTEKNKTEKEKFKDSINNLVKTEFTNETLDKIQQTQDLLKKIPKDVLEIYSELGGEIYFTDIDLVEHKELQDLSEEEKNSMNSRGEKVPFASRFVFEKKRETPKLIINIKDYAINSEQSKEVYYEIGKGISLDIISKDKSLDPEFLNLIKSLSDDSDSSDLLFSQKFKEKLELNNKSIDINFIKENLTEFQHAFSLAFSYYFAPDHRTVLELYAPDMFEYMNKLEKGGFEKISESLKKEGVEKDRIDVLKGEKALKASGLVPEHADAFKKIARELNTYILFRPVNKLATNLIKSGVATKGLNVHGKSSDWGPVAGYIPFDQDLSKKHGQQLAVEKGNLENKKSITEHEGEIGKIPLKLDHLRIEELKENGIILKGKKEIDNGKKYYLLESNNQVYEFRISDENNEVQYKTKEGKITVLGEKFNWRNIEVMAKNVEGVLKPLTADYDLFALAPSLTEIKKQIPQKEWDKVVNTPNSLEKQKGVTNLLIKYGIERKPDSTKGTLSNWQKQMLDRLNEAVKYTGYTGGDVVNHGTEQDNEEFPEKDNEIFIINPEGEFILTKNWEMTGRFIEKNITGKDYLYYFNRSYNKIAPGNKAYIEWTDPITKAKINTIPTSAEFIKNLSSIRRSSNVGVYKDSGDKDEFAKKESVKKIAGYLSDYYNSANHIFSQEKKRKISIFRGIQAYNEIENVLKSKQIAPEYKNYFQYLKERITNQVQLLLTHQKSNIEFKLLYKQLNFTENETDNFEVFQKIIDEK", "format": "cell-based"}, "adenylyl cyclase [2]": {"tested_on": "adenylyl cyclase", "format": "cell-based, human"}, "T84 cells": {"tested_on": "T84 cells", "format": "cell-based, human", "details": "50 μM compound"}, "[3]": {"biological_target": "T1, membrane guanylyl cyclase (guanylyl cyclase type A, GC-A) (Homo sapiens, UniProt P16066)", "T1 sequence (P16066 33-1061)": "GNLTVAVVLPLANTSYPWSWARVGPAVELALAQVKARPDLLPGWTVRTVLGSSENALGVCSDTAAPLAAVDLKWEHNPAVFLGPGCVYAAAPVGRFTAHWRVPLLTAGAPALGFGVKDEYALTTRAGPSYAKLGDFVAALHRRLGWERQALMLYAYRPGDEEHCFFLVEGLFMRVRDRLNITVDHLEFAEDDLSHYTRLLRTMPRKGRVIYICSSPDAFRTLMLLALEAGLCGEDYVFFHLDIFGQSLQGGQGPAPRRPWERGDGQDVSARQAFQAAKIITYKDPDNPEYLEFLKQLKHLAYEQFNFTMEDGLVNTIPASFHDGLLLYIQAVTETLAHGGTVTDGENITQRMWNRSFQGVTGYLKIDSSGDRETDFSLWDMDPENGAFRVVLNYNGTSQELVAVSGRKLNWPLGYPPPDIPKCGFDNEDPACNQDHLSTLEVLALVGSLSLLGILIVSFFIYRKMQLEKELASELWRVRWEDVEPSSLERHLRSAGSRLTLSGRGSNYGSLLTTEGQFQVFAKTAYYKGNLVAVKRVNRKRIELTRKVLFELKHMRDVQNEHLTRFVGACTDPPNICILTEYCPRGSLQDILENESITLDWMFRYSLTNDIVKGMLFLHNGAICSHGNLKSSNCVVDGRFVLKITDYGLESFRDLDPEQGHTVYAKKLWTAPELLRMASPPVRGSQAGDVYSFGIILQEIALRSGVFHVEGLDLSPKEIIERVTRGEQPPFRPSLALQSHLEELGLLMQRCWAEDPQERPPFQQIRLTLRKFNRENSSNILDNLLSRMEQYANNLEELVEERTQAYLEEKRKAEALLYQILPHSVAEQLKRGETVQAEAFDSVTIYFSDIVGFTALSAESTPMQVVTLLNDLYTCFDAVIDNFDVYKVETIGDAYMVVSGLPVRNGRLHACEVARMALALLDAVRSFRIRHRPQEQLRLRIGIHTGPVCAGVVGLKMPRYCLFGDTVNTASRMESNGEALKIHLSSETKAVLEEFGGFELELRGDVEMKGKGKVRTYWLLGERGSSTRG", "assay": "ANP-induced cyclic GMP accumulation in BE-2(C) neuroblastoma cells"}, "[4]": {"biological_target": "T2, guanylyl cyclase type A (GC-A) (Rattus norvegicus, UniProt P18910)", "T2 sequence (P18910 29-1057)": "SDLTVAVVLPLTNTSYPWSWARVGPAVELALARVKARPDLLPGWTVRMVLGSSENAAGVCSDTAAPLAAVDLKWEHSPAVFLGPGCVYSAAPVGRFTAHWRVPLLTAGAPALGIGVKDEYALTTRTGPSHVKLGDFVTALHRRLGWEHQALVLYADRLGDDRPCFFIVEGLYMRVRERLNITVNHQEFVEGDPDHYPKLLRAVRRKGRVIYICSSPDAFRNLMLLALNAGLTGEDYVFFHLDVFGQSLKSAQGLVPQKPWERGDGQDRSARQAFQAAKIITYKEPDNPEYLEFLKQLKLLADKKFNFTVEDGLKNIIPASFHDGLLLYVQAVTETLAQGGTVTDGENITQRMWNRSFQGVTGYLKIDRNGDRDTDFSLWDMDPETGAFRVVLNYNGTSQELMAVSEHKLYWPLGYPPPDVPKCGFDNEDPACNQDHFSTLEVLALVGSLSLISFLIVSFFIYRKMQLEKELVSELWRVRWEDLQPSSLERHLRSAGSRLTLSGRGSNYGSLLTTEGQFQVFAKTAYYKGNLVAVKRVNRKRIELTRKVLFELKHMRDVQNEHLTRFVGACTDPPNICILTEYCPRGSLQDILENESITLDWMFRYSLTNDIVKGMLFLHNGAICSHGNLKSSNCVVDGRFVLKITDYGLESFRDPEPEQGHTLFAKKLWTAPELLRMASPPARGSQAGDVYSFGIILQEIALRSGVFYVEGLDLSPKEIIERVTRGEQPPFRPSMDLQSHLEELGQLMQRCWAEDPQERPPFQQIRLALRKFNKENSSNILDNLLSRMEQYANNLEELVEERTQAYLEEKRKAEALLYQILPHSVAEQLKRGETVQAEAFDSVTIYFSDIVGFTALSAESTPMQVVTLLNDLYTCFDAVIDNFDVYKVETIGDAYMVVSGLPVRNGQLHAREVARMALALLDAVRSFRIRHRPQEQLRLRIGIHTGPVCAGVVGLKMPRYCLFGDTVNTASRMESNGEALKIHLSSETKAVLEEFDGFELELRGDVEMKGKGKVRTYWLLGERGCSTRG", "assay": "ANP-induced cyclic GMP accumulation in RFL-6 fibroblast cells", "details": "RFL-6 cells, 1 μM ANP, 50 μM compound"}, "[5]": {"biological_target": "pertussis adenylyl cyclase toxin (Bordetella pertussis, UniProt P0DKX7)", "sequence (P0DKX7 whole entry, looked up)": "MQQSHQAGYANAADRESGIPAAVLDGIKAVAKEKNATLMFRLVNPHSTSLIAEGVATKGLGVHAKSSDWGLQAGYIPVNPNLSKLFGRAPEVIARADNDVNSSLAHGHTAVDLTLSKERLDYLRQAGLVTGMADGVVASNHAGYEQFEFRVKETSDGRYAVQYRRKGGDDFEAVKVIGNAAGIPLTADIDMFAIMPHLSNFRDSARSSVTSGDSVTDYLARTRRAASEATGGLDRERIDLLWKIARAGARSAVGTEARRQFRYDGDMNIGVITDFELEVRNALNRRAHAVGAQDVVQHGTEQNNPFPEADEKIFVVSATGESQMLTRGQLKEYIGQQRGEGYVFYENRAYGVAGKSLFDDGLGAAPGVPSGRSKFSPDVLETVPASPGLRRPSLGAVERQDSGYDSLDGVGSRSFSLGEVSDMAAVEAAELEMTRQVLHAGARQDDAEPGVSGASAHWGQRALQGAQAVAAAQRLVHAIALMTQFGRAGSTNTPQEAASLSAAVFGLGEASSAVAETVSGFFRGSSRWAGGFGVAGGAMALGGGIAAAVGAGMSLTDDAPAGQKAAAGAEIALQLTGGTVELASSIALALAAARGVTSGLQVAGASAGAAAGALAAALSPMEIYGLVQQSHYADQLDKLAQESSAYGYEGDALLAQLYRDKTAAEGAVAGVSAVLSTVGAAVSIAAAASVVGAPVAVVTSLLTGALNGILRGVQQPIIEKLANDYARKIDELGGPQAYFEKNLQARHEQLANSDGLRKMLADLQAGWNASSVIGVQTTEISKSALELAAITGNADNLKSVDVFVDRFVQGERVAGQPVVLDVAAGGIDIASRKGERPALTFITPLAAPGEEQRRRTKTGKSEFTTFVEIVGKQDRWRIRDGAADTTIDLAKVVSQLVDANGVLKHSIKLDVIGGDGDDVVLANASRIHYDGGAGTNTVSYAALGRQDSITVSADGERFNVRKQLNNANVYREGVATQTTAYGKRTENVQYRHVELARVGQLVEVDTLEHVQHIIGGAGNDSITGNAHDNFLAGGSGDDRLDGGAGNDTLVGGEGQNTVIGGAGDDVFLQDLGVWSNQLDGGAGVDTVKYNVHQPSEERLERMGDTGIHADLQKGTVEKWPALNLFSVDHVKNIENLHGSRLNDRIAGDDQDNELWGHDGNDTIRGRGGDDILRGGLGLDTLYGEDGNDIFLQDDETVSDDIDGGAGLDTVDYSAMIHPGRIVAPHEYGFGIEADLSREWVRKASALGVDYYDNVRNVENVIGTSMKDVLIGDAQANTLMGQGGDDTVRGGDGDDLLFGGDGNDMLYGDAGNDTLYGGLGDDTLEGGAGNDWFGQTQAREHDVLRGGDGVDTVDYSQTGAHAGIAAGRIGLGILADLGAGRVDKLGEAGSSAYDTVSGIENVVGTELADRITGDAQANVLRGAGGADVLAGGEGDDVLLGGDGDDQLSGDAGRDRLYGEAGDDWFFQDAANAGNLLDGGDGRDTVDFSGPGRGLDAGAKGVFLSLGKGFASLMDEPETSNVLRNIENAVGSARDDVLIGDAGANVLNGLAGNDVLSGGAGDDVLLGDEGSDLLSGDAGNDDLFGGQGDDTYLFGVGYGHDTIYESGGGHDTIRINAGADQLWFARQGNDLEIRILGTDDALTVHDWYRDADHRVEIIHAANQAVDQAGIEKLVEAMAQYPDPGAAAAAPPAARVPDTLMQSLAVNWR", "assay": "Cyclic AMP accumulation in T84 cells infected with pertussis adenylyl cyclase toxin", "format": "cell-based", "details": "50 μM compound", "description": "The assay was performed in T84 cells by the methods described in Example 2 and Ahuja, N.; Kumar, P.; Bhatnagar, R., The adenylate cyclase toxins. Crit Rev Microbiol 2004, 30, (3), 187-96, but the amount of cyclic AMP accumulated was assayed with a commercially available kit from Cayman Chemical Co.\nCells were treated with pertussis adenylyl cyclase toxin at 1 μg/ml in Dulbecco's minimal essential medium for 60 min in the presence of vehicle DMSO (0.1%) or 50 μM compound IIb for 60 min and then medium was aspirated and replaced with DPBS containing 1 mM IBMX and DMSO or compound IIb, respectively, for the vehicle and compound IIb-treated samples. After 10 min incubation, the amount of cyclic AMP was measured. […] N=3."}, "adenylyl cyclase [6]": {"tested_on": "adenylyl cyclase", "format": "cell-based, human", "remark": "listed apart in the source"}}, "note": "Values joined by “and” are separate entries in the source; they are usually repeats but may differ in a detail not shown here. Equal values may be shown once."}
{"smiles": "Cn1c2c(c(=O)n(C)c1=O)C(c1cccc(Br)c1)C1=C(N2)c2ccccc2C1=O", "note": "(stereo not drawn) [compound IIb]", "values": [{"measurement": "cyclic AMP accumulation", "setting": "[1]", "value": "62.1±6.3", "unit": "pmol/mg protein"}, {"measurement": "decrease of cyclic AMP accumulation", "setting": "[1]", "value": 55.2, "unit": "%"}, {"measurement": "inhibition of cyclic AMP accumulation", "setting": "adenylyl cyclase [2]", "value": "41.3% and 58.2%"}, {"measurement": "increase in chloride efflux induced by 8-bromo cyclic AMP or ionomycin", "setting": "T84 cells", "value": "not influenced"}, {"measurement": "increase in chloride efflux induced by isoproterenol, cholera toxin and forskolin", "setting": "T84 cells", "value": "significantly suppressed"}, {"measurement": "chloride anion efflux, increase in fluorescence of MQAE", "setting": "T84 cells; 50 μM forskolin, forskolin alone 2690, baseline 477", "value": 428, "unit": "relative units in 10 min"}, {"measurement": "IC50", "setting": "[3]", "value": 8.4, "unit": "µM"}, {"measurement": "inhibition of cyclic GMP accumulation (FIG. 6)", "setting": "[4]", "value": "inhibition"}, {"measurement": "cyclic AMP accumulation", "setting": "[5]; toxin 1 μg/ml 60 min, vehicle 9.97±0.72", "value": "4.06±0.44", "unit": "nmol/mg protein"}, {"measurement": "decrease of cyclic AMP accumulation", "setting": "[5]; toxin 1 μg/ml", "value": 59.2, "unit": "%"}, {"measurement": "amount of cyclic AMP accumulated", "setting": "adenylyl cyclase [6]", "value": "1.2±0.1", "unit": "nmol/mg protein"}, {"measurement": "inhibition of cholera toxin-induced cyclic AMP", "setting": "adenylyl cyclase [6]; T84 cells, cholera toxin 1 μg/ml, 50 μM compound", "value": 84.6, "unit": "%"}]}
